From patent US20060063782A1, “3-Hetero arylmethoxy ! pyridines and their analogues as p38 map kinase inhibitors” (priority 2002, published 2006)
pIC50: −log10 of the molar value.

What was measured:
[1] = molecular target: p38 MAP kinase (Homo sapiens, UniProt Q16539); assay: p38 MAP Kinase Assay (33P incorporation into myelin basic protein, filter plate); assay type: biochemical; conditions: MKK6-activated p38, MBP substrate, 50 minutes
[2] = test system: LPS-induced TNF-α production in THP-1 cells; assay: Inhibition of LPS-Induced TNF-α Production in THP-1 Cells (ELISA); assay type: cell-based; conditions: Homo sapiens; PMA-treated THP-1 cells, 1 μg/ml LPS, 6 hours, TNF-α by ELISA; read-out: IC50 (inhibition of TNF-α release)
Experimental: THP-1 cells were suspended in culture medium containing 50 ng/ml PMA (SIGMA), seeded into a 96-well tissue culture plate (IWAKI) at 1×10^5 cells/well (100 μl/well) and incubated as described above for approximately 48 hours. The medium was then aspirated, the wells washed twice in Phosphate Buffered Saline and 1 μg/ml LPS (SIGMA) in culture medium was added (200 μl/well).
Test compounds were reconstituted in DMSO (SIGMA) and then diluted with the culture medium such that the final DMSO concentration was 0.1%. Twenty microlitre aliquots of test solution or medium only with DMSO (solvent control) were added to triplicate wells immediately following LPS addition, and incubated for 6 hours as described above. Culture supernatants were collected and the amount of human TNF-α present was determined by ELISA (R&D Systems) performed according to the manufacturer's instructions.
The IC50 was defined as the concentration of the test compound corresponding to half maximal inhibition of the control activity by non-linear regression analysis of their inhibition curves.

Sequence of p38 MAP kinase (Q16539 whole entry): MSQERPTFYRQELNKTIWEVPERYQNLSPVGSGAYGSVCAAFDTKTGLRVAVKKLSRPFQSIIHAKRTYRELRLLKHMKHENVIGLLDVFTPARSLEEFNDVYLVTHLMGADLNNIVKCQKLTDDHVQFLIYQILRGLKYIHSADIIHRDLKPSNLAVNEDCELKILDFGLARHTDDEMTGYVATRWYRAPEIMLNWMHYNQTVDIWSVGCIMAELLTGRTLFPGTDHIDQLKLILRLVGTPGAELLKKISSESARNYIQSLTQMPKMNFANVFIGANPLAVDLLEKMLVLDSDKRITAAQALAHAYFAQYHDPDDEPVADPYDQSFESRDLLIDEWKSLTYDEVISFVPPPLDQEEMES

Row | pIC50 ([1]; Table 1) | pIC50 [2] | pIC50 ([1]; Table 2) | Compound
1 | > 5.70 | 6.01 |  | O=C(Nc1ccc(Cl)c(COc2ccc(NCCO)nc2)c1)c1cc(F)cc(N2CCOCC2)c1 [Compound 76, N-{4-Chloro-3-[6-(2-hydroxy-ethylamino)-pyridin-3-yloxymethyl]-phenyl}-3-fluoro-5-morpholin-4-yl-benzamide]
2 |  | 6.68 | > 5.70 | O=C(Nc1ccc(Cl)c(COc2cnccn2)c1)c1cc(F)cc(N2CCOCC2)c1 [Compound 94, N-[4-Chloro-3-(pyrazin-2-yloxymethyl)-phenyl]-3-fluoro-5-morpholin-4-yl-benzamide]
